Data set [1] deals with T1, human HER2 (23-652) (Homo sapiens, UniProt P04626). Briefly: TR-FRET competition assay for peptide potency, human HER2. The settings on record: read-out: huHER2 TR-FRET IC50. More on the design: towards human HER2 (23-652) and mouse HER2 (23-653); made in house; host or cells: mammalian cells. The class given is binding.
Data set [2] concerns the target T2, mouse HER2 (23-653) (Mus musculus, UniProt P70424). Put plainly: TR-FRET competition assay for peptide potency, mouse HER2. The class given is binding. More on the design: mouse HER2 (23-653) using a Cy5 labeled peptide as a probe; made in house; host or cells: mammalian cells. Particulars: TR-FRET competition with Cy5 labeled peptide probe, 0.1 nM mouse HER2, 24 h incubation; read-out: moHER2 TR-FRET IC50.

In data set [3] the target is T1, human HER2 (23-652). Put plainly: Surface plasmon resonance (SPR) for assessment of peptide affinity, human HER2. The data set is classed as binding. The settings on record: SPR, human HER2 extracellular domain, 25° C., 1:1 binding model; for Kd: read-out: huHER2-SPR-ONC KD. The arrangement: towards human HER2 (23-652) and mouse HER2 (23-653); made in house. In short, it runs like this: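 Binding kinetics fitted from sensorgrams with 280 s peptide association then 3000 s dissociation (30 uL/min), using HER2 (23-652) either directly immobilized (SA/CM5) or anti-Fc-captured; 3 M magnesium chloride used for regeneration.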
Background: In SPR one partner is held on a chip, and binding of the other changes the refractive index at the surface.

For data set [4], the target named is T2, mouse HER2 (23-653). Put plainly: Surface plasmon resonance (SPR) for assessment of peptide affinity, mouse HER2. The class given is binding. More on the design: mouse HER2 (23-653) using a Cy5 labeled peptide as a probe; made in house. Particulars: SPR, mouse HER2 extracellular domain, 25° C., 1:1 binding model; for Kd: read-out: moHER2-SPR-ONC KD. The source says:
Each protein was immobilized either onto a SA sensorchip (Cytiva, BR-1005-31) or CM5 sensorchip (Cytiva, BR-1005-30) to a density of 800-2000 RU.
Target sequence in this assay (P70424 23-653): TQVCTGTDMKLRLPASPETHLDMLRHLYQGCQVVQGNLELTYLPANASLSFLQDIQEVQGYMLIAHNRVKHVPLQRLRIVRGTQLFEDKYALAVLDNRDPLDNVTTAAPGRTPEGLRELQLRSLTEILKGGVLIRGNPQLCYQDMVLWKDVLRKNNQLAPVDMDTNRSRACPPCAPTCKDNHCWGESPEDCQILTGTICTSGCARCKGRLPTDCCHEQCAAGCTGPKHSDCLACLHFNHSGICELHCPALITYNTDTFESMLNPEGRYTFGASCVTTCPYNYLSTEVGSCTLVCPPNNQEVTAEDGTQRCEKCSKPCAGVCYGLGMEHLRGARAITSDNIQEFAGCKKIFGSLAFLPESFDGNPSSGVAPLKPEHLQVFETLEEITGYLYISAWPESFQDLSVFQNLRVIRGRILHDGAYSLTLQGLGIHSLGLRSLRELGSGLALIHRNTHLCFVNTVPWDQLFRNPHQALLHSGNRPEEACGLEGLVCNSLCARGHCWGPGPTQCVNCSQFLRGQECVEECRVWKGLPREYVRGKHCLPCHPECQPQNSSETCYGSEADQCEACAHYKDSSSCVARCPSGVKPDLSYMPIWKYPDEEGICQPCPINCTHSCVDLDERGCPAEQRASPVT

Where a name gives a salt, the structure may show the parent alone. Read-outs that look alike come from different tables or passages of the source. Positions of bridges follow the written chain, without caps; N, C: chain ends. Non-standard residues stand in square brackets, D forms with d. Residues, ends and D or L forms follow the SMILES beside them. Trp(5-OH) = N[C@@H](Cc1c[nH]c2ccc(O)cc12)C(=O)O; NMePhe(4-F) = CN[C@@H](Cc1ccc(F)cc1)C(=O)O; NMehPhe = CN[C@@H](CCc1ccccc1)C(=O)O; NMeE = CN[C@@H](CCC(=O)O)C(=O)O; Aad = N[C@@H](CCCC(=O)O)C(=O)O; Gly(cPr) = N[C@H](C(=O)O)C1CC1; Ahp(2) = CCCCC[C@H](N)C(=O)O; NMeK = CN[C@@H](CCCCN)C(=O)O; NMeDap = CN[C@@H](CN)C(=O)O; NMeS = CN[C@@H](CO)C(=O)O; Dap = NC[C@H](N)C(=O)O

“4-(((3S,6S,9S,12S,15S,18S,21S,24S,27S)-9-((1H-indol-3-yl)methyl)-15-(4-acetamidobutyl)-6-cyclopropyl-3-(((S)-1-(((S)-1,6-diamino-1-oxohexan-2-yl)amino)-3-(4-fluorophenyl)-1-oxopropan-2-yl)(methyl)carbamoyl)-12-((5-hydroxy-1H-indol-3-yl)methyl)-24-(4-hydroxybenzyl)-21-(hydroxymethyl)-4,16,19-trimethyl-5,8,11,14,17,20,23,26,31-nonaoxo-18-phenethyl-1,4,7,10,13,16,19,22,25-nonaazacyclohentriacontan-27-yl)amino)-4-oxobutanoic acid TFA salt” registered a ring closure, yield after HPLC (amide bond, 31-membered ring, PyAOP/Et3N, then TFA, DCM, 0.79 mM, 2 steps) of 61%.
Regarding “Ac-hGlu-Tyr-Ser-MehPhe-MeLys(COCH2OH)-Trp(5-OH)-Trp-Gly(cPr)-MeDap-MePhe(4-F)-Lys(Alloc)-NH2?”, where the note is “the molecule shown is the open-chain precursor, amide bond, 31-membered ring, PyAOP/DIEA, then Pd(PPh3)4/PhSiH3, DMF, 5.0 mM, with chain assembly”, the ring closure, yield after HPLC came out at 10.3%.
For the setting “amide bond, 30-membered ring, PyAOP/DIEA, DMF, resin, […], 50.0 °C, with chain assembly”, “2-((1E,3E)-5-((E)-1-(6-(((S)-5-((S)-2-((3S,6S,9S,12S,15S,18S,21S,24S,27S)-9-((1H-indol-3-yl)methyl)-27-acetamido-15-(4-acetamidobutyl)-12-((5-hydroxy-1H-indol-3-yl)methyl)-24-(4-hydroxybenzyl)-6-((S)-1-hydroxyethyl)-21-(hydroxymethyl)-N,4,16,19-tetramethyl-5,8,11,14,17,20,23,26,30-nonaoxo-18-phenethyl-1,4,7,10,13,16,19,22,25-nonaazacyclotriacontane-3-carboxamido)-3-(4-fluorophenyl)propanamido)-6-amino-6-oxohexyl)amino)-6-oxohexyl)-3,3-dimethyl-5-sulfoindolin-2-ylidene)penta-1,3-dien-1-yl)-1-ethyl-3,3-dimethyl-3H-indol-1-ium-5-sulfonate” had a ring closure, yield after HPLC of 1.7%.
As for “(3R,6S,9S,12S,15S,18S,21S,24S,27S)-9-((1H-indol-3-yl)methyl)-27-acetamido-N—((S)-1-amino-3-(4-fluorophenyl)-1-oxopropan-2-yl)-6-cyclopropyl-12-((5-hydroxy-1H-indol-3-yl)methyl)-24-(4-hydroxybenzyl)-15,21-bis(hydroxymethyl)-N,4,16,19-tetramethyl-5,8,11,14,17,20,23,26,30-nonaoxo-18-phenethyl-1-thia-4,7,10,13,16,19,22,25,29-nonaazacyclohentriacontane-3-carboxamide”, the ring closure, yield after HPLC (thioether bond, 31-membered ring, DIEA, ACN/water, […], with chain assembly) worked out at 6%.
“Fmoc-hGlu-Tyr-Ser-MehPhe-MeLys(Ac)-Trp(5-OH)-Trp-Gly(cPr)-MeDap-MePhe(4-F)-Lys(N3)-NH2?” returned a ring closure, yield after HPLC (the molecule shown is the open-chain precursor, amide bond, 31-membered ring, HATU/2,6-lutidine, DMF/DCM 1:10, 0.76 mM) of 64%.
Consider “(3R,6S,9S,12S,15S,18S,21S,24S,27S)-9-((1H-indol-3-yl)methyl)-27-amino-N—((S)-1-amino-3-(4-fluorophenyl)-1-oxopropan-2-yl)-6-cyclopropyl-12-((5-hydroxy-1H-indol-3-yl)methyl)-24-(4-hydroxybenzyl)-15,21-bis(hydroxymethyl)-N,4,16,19-tetramethyl-5,8,11,14,17,20,23,26,30-nonaoxo-18-phenethyl-1-thia-4,7,10,13,16,19,22,25,29-nonaazacyclohentriacontane-3-carboxamide TFA salt”, for which the ring closure, yield after HPLC (thioether bond, 31-membered ring, DIEA, then pyrrolidine, ACN/water, […], with chain assembly) worked out at 1%.
Turning to “2-(4-(((S)-5-((S)-2-((3S,6S,9S,12S,15S,18S,21S,24S,27S)-9-((1H-indol-3-yl)methyl)-15-(4-acetamidobutyl)-27-(3-aminopropanamido)-12-((5-hydroxy-1H-indol-3-yl)methyl)-24-(4-hydroxybenzyl)-6-((S)-1-hydroxyethyl)-21-(hydroxymethyl)-N,4,16,19-tetramethyl-5,8,11,14,17,20,23,26,30-nonaoxo-18-phenethyl-1,4,7,10,13,16,19,22,25-nonaazacyclotriacontane-3-carboxamido)-3-(4-fluorophenyl)propanamido)-6-amino-6-oxohexyl)carbamoyl)piperazin-1-yl) acetic acid TFA salt”, under “amide bond, 30-membered ring, DIC/Oxyma, DMF, resin, […], 75.0 °C, with chain assembly”, the ring closure, yield after HPLC was determined as 4.7%.
Turning to “HOOC(CH2)4CO-Tyr-Ser-MehPhe-MeLys(Ac)-Trp(5-OH)-Trp-Gly(cPr)-MeDap-MePhe(4-F)-Lys(Boc)-NH2?”, the ring closure, yield after HPLC (the molecule shown is the open-chain precursor, amide bond, 31-membered ring, PyAOP/Et3N, DCM, 0.52 mM) stood at 51%.
The term IC50 denotes the point on the concentration scale where inhibition reaches its midpoint. On to `CC(=O)N[C@H]1CNC(=O)CC[C@@H](C(=O)N(C)[C@@H](Cc2ccc(F)cc2)C(N)=O)N(C)C(=O)[C@H](C2CC2)NC(=O)[C@H](Cc2c[nH]c3ccccc23)NC(=O)[C@H](Cc2c[nH]c3ccc(O)cc23)NC(=O)[C@H](CO)N(C)C(=O)[C@H](CCc2ccccc2)N(C)C(=O)[C@H](CO)NC(=O)[C@H](Cc2ccc(O)cc2)NC1=O` [Example A19, (3S,6S,9S,12S,15S,18S,21S,24S,30S)-6-((1H-indol-3-yl)methyl)-24-acetamido-N-((S)-1-amino-3-(4-fluorophenyl)-1-oxopropan-2-yl)-3-cyclopropyl-9-((5-hydroxy-1H-indol-3-yl)methyl)-21-(4-hydroxybenzyl)-12,18-bis(hydroxymethyl)-N,1,13,16-tetramethyl-2,5,8,11,14,17,20,23,27-nonaoxo-15-phenethyl-1,4,7,10,13,16,19,22,26-nonaazacyclotriacontane-30-carboxamide] (Ac-[Dap]YS[NMehPhe][NMeS][Trp(5-OH)]W[Gly(cPr)][NMeE][NMePhe(4-F)]-NH2; lactam 1-9), for which the IC50 on human HER2 (23-652) [1] and on mouse HER2 (23-653) [2] was more than 1000 nM in each case. Also, at human HER2 (23-652) [3], the “huHER2-SPR-ONC KD” value is listed as “no binding*”. For the same molecule, the “moHER2-SPR-ONC KD” value on mouse HER2 (23-653) [4] was “no binding*”.
By Kd is commonly meant the free concentration of one partner at which half of the binding sites on the other are occupied at equilibrium, for simple one-to-one binding. With `CC(=O)NCCCC[C@H]1C(=O)N[C@@H](Cc2c[nH]c3ccc(O)cc23)C(=O)N[C@@H](C)C(=O)N[C@@H](C2CC2)C(=O)N(C)[C@H](C(=O)N(C)[C@@H](Cc2ccc(F)cc2)C(=O)N[C@@H](CCCCN)C(N)=O)CNC(=O)CCC[C@H](NC(C)=O)C(=O)N[C@@H](Cc2ccc(O)cc2)C(=O)N[C@@H](CO)C(=O)N(C)[C@@H](CCc2ccccc2)C(=O)N1C` [Example A45, (3S,6S,9S,12S,15S,18S,21S,24S,27S)-27-acetamido-15-(4-acetamidobutyl)-6-cyclopropyl-N-((S)-1-(((S)-1,6-diamino-1-oxohexan-2-y1)amino)-3-(4-fluorophenyl)-1-oxopropan-2-y1)-12-((5-hydroxy-1H-indol-3-yl)methyl)-24-(4-hydroxybenzyl)-21-(hydroxymethyl)-N,4,9,16,19-pentamethyl-5,8,11,14,17,20,23,26,31-nonaoxo-18-phenethyl-1,4,7,10,13,16,19,22,25-nonaazacyclohentriacontane-3-carboxamide TFA salt] (Ac-[Aad]YS[NMehPhe][NMeK](Ac)[Trp(5-OH)]A[Gly(cPr)][NMeDap][NMePhe(4-F)]K-NH2; lactam 1-9), the IC50 at human HER2 (23-652) [1] was more than 900 nM; at mouse HER2 (23-653) [2], more than 1000 nM. For the same molecule, the Kd at human HER2 (23-652) [3] and on mouse HER2 (23-653) [4] was more than 6000 nM each time.
Take `CCCCC[C@@H]1NC(=O)[C@H](Cc2c[nH]c3ccc(O)cc23)NC(=O)[C@H](CCCCNC(C)=O)N(C)C(=O)[C@H](CCc2ccccc2)N(C)C(=O)[C@H](CO)NC(=O)[C@H](Cc2ccc(O)cc2)NC(=O)[C@@H](NC(C)=O)CCCC(=O)NC[C@@H](C(=O)N(C)[C@@H](Cc2ccc(F)cc2)C(N)=O)N(C)C(=O)[C@H](C2CC2)NC1=O` [Example A17, (3S,6S,9S,12S,15S,18S,21S,24S,27S)-27-acetamido-15-(4-acetamidobutyl)-N-((S)-1-amino-3-(4-fluorophenyl)-1-oxopropan-2-yl)-6-cyclopropyl-12-((5-hydroxy-1H-indol-3-yl)methyl)-24-(4-hydroxybenzyl)-21-(hydroxymethyl)-N,4,16,19-tetramethyl-5,8,11,14,17,20,23,26,31-nonaoxo-9-pentyl-18-phenethyl-1,4,7,10,13,16,19,22,25-nonaazacyclohentriacontane-3-carboxamide] (Ac-[Aad]YS[NMehPhe][NMeK](Ac)[Trp(5-OH)][Ahp(2)][Gly(cPr)][NMeDap][NMePhe(4-F)]-NH2; lactam 1-9): the IC50 at human HER2 (23-652) [1] and at mouse HER2 (23-653) [2] was more than 1000 nM throughout. For the same molecule, the Kd on human HER2 (23-652) [3] and at mouse HER2 (23-653) [4] was more than 6000 nM in each case.

The values are drawn from patent publication US20250332300A1 (priority 2024, published 2025).
